Results reported in PubChem BioAssay AID1552 (Sanford-Burnham Center for Chemical Genomics, 2009).
The source made the active and inactive calls. How the calls were made is not given here.

Target: Ubiquitin-conjugating enzyme E2 N (Homo sapiens) (UniProt P61088)
Experiment: UBE2N binders by NMR, biophysical, purified protein (AID 1552)
Details: NMR binding to purified UBE2N

Ubiquitin-conjugating enzyme E2 N (Homo sapiens), sequence (P61088 whole entry, looked up): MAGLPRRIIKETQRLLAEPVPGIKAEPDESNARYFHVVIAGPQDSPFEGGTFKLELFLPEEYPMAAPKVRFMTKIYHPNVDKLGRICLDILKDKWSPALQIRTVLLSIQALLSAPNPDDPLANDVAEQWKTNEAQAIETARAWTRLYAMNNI

SMILES	Kd
O=c1[nH]cc(COCc2ccccc2)c(=O)[nH]1	> 4 mM (inactive)
COc1cccc(/C=C2/SC(N)=NC2=O)c1	> 4 mM (inactive)
Cc1cc(Oc2ccccc2)nc(N)n1	> 4 mM (inactive)
O=[n+]1c(CO)c(CO)n([O-])c2ccccc21	> 4 mM (inactive)
c1cc2n(c1)CCNC2c1ccncc1 (centres undefined)	> 4 mM (inactive)
O=C(Nn1cnnc1)c1cc2c(s1)CCCC2	> 4 mM (inactive)
O=C(Nc1cccnc1)c1cnn2cccnc12	> 4 mM (inactive)
Cc1nnc(N2CCN(Cc3ccccc3)CC2)[nH]c1=O	> 4 mM (inactive)
CCOc1cc(S(=O)(=O)N2CCOCC2)ccc1F	> 4 mM (inactive)
Nc1nsc(-c2ccccc2)n1	> 4 mM (inactive)
N=C1/C(=C\c2ccccc2)C(=O)N=C2SC=NN12	> 4 mM (inactive)
NC(=O)CN1CCCCCC1=O	> 4 mM (inactive)
CCOC(=O)c1c(C)cc(O)c(C=O)c1O	> 4 mM (inactive)
N#Cc1cc(-c2ccccc2)oc1N	> 4 mM (inactive)
Cc1cccc(C)c1NC(=O)CN1CCOCC1	> 4 mM (inactive)
CCOc1ccc(N2C(=O)CCC2=O)cc1	> 4 mM (inactive)
CNC(=O)c1ccc([N+](=O)[O-])cc1Cl	> 4 mM (inactive)
O=C(Nc1ccccc1)C(=O)NC1CC1	> 4 mM (inactive)
CCOC(=O)C(C)c1n[nH]c(=O)c2ccccc12 (centres undefined)	> 4 mM (inactive)
Nc1cccc(NC(=O)c2ccco2)c1	> 4 mM (inactive)
NC(=O)CN1C(=O)c2cccc3cccc1c23	> 4 mM (inactive)
Cc1ccccc1C(=O)Nc1cccc(N)c1	> 4 mM (inactive)
COc1ccc2c(c1)OC[C@@H](Cc1ccc(OC)c(OC)c1)[C@H]2O	> 4 mM (inactive)
O=C1CSC(=O)N1c1cccc(O)c1	> 4 mM (inactive)

SMILES	Kd
Oc1ccc([C@H]2Oc3cc(O)cc(O)c3C[C@H]2O)cc1	> 4 mM (inactive)
CC(=O)Nc1cccc(-c2n[nH]c(=S)n2C)c1	> 4 mM (inactive)
COc1ccc(/C=C2\NC(=S)N(C)C2=O)cc1O	> 4 mM (inactive)
CC1=C(CCC(=O)O)c2cc3nc(cc4[nH]c(cc5[nH]c(cc1n2)c(C)c5C(C)O)c(C)c4C(C)O)C(C)=C3CCC(=O)O (centres undefined)	> 4 mM (inactive)
CCCc1cc(=O)[nH]c2nnc(SCC(C)=O)n12	> 4 mM (inactive)
N#Cc1cn(CC(=O)N2CCCC2)c2ccccc12	> 4 mM (inactive)
CC(C)n1nnc2cc(C(=O)O)ccc21	> 4 mM (inactive)
CC(=O)CNc1cc(CNC(C)=O)c(C)cc1C	> 4 mM (inactive)
Oc1ccc(C(=S)N2CCCCC2)cc1Cl	> 4 mM (inactive)
COC(=O)c1ccccc1C	> 4 mM (inactive)
NCc1cccc2nsnc12	> 4 mM (inactive)
Nc1ncccc1OCc1ccccc1	> 4 mM (inactive)
Clc1ccccc1OCCn1ccnc1	> 4 mM (inactive)
O=C(O)C1C(=O)NCC1c1ccccc1 (centres undefined)	> 4 mM (inactive)
NC(=O)c1sc2ccccc2c1Cl	> 4 mM (inactive)
CC1(C)C2CC(=O)[C@]3(C)C(CC[C@@]4(C)[C@H](c5ccoc5)OC(=O)[C@H]5O[C@]543)[C@@]2(C)C(=O)C[C@H]1O (some centres undefined)	> 4 mM (inactive)
Cn1cnc2c(=S)[nH]c(=O)n(Cc3ccccc3)c21	> 4 mM (inactive)
COc1ccc(N2C(=O)CCC2=O)c(OC)c1	> 4 mM (inactive)
CN1CCC(N(C)C2CCN(C)CC2)CC1	> 4 mM (inactive)
CC1(C)C2C[C@@H](O)[C@]3(C)C(CC[C@@]4(C)[C@H](c5ccoc5)OC(=O)[C@H]5O[C@]543)[C@@]2(C)[C@@H](O)C[C@H]1O (some centres undefined)	> 4 mM (inactive)
C=C[C@@]1(C)CC(=O)[C@@]2(O)[C@](C)(O1)[C@@H](OC(C)=O)[C@@H](O)C1C(C)(C)CC[C@H](O)[C@@]12C (some centres undefined)	> 4 mM (inactive)
COC(=O)Nc1nc2c(C)cccc2s1	> 4 mM (inactive)
COc1cc(C)c2c(c1C=O)Oc1c(c(C)c(O)c3c1C(O)OC3=O)OC2=O (centres undefined)	> 4 mM (inactive)
Cc1c(CO)cnn1-c1ccccc1	> 4 mM (inactive)

SMILES	Kd
Cc1ccc(SCc2nc(-c3cccnc3)no2)cc1	> 4 mM (inactive)
O=C1NC(=S)N/C1=C/c1ccc(O)c(Cl)c1	> 4 mM (inactive)
C[C@@H]1C(=O)OC2[C@H](O)C34[C@@H]5OC(=O)[C@@]3(O[C@@H]3OC(=O)[C@H](O)[C@@]34[C@H](C(C)(C)C)[C@H]5O)[C@]21O (some centres undefined)	> 4 mM (inactive)
CCCc1ncc(C(O)c2cccc3ccccc23)n1C (centres undefined)	> 4 mM (inactive)
C=C(C)[C@H]1Cc2c(ccc3c2O[C@@H]2COc4cc(OC)c(OC)cc4[C@@H]2C3=O)O1	> 4 mM (inactive)
COc1ccccc1CNc1nc2nc(C)cc(=O)n2[nH]1	> 4 mM (inactive)
Cc1ccc(CN2CCNC(=O)C2CC(=O)O)o1 (centres undefined)	> 4 mM (inactive)
O=C(O)CS(=O)(=O)c1ccccc1[N+](=O)[O-]	> 4 mM (inactive)
O=C(c1cc(-c2ccccc2)on1)N1CCCC1	> 4 mM (inactive)
Cc1cccc(N2C(=O)CC(=O)NC2=O)c1	> 4 mM (inactive)
Cn1nc(-c2cccs2)cc1N	> 4 mM (inactive)
COc1cc(/C=C/C(=O)/C=C(O)/C=C/c2ccc(O)c(OC)c2)ccc1O	> 4 mM (inactive)
CC(=O)Oc1c(C)cc(O)c2ccccc12	> 4 mM (inactive)
CSc1ccc(C2NC(=O)CCC2[N+](=O)[O-])cc1 (centres undefined)	> 4 mM (inactive)
CC(=O)Nc1ccc(NC2SC(=O)NC2=O)cc1 (centres undefined)	> 4 mM (inactive)
Nc1ccc2c(c1)C(=O)OC2	> 4 mM (inactive)
O=C(O)CNC(=O)c1ccc([N+](=O)[O-])cc1	> 4 mM (inactive)
O=C(O)c1onc2ccccc12	> 4 mM (inactive)
Cc1ccccc1C(=O)Nn1cnnc1	> 4 mM (inactive)
NC1=NN(c2ccccc2)C(=O)C1	> 4 mM (inactive)
O=C(O[C@@H]1Cc2c(O)cc(O)cc2O[C@@H]1c1cc(O)c(O)c(O)c1)c1cc(O)c(O)c(O)c1	> 4 mM (inactive)
CC(CC(=O)O)n1cccn1 (centres undefined)	> 4 mM (inactive)
Cc1c(C(=O)NCc2ccccn2)oc2ccccc12	> 4 mM (inactive)
O=S(=O)(Nc1ccc2c(c1)OCCO2)c1cccs1	> 4 mM (inactive)

SMILES	Kd
CC(=O)Oc1cc2c(c(C)c1OC(C)=O)CC=C1[C@@]2(C)CC[C@@]2(C)C3C[C@](C)(C(=O)O)CC[C@]3(C)CC[C@]12C (some centres undefined)	> 4 mM (inactive)
OCc1ccc(N2CCOCC2)cc1	> 4 mM (inactive)
O=C(c1ncc[nH]1)c1ccccc1C(=O)N1CCOCC1	> 4 mM (inactive)
CC(=O)O[C@@H]1CC2C(C)(C)[C@H](O)CC[C@]2(C)C2CC[C@@]3(C)[C@H](c4ccoc4)OC(=O)C4OC43[C@@]21C (some centres undefined)	> 4 mM (inactive)
Cc1cn(C(=O)CN2C(=O)c3ccccc3C2=O)c(C)n1	> 4 mM (inactive)
O=C1CC(N2CCC(O)CC2)C(=O)N1c1ccc(F)cc1 (centres undefined)	> 4 mM (inactive)
CN(C)C(=O)CSc1nc2ccccc2c(=O)[nH]1	> 4 mM (inactive)
Cc1nn(-c2ccccc2)nc1C(N)=O	> 4 mM (inactive)
CN1CCN(C(=O)Nc2cccc3ccccc23)CC1	> 4 mM (inactive)
O=C1CCC(=O)N1c1cccnc1	> 4 mM (inactive)
NCc1ccc(N2CCOCC2)cc1	> 4 mM (inactive)
C=CCc1cc(C(=O)N2CCCCC2)ccc1O	> 4 mM (inactive)
COC(=O)Nc1nc2c(s1)CCCC2	> 4 mM (inactive)
CN(C)S(=O)(=O)c1ccc(C(=O)NN)cc1	> 4 mM (inactive)
Cc1nc2ccccc2c(=O)n1CCCO	> 4 mM (inactive)
COc1ccc2c(c1)[nH]c1c(C)nccc12	> 4 mM (inactive)
O=C(/C=C1\SC(=O)NC1=O)NCc1ccccc1	> 4 mM (inactive)
NS(=O)(=O)c1ccc(F)cc1	> 4 mM (inactive)
CN(C)c1ccc(N2C(=O)CCC2=O)cc1	> 4 mM (inactive)
CCSc1nc2ccccc2n1CC(N)=O	> 4 mM (inactive)
CCn1cnc2sc(C(=O)O)c(C)c2c1=O	> 4 mM (inactive)
CS(=O)(=O)N1CCN(C(=O)Cc2cccs2)CC1	> 4 mM (inactive)
Cc1ccc(NC(=O)C2CCN(S(C)(=O)=O)CC2)cc1	> 4 mM (inactive)
O=C(Nc1ccc2c(c1)OCCO2)c1ccncc1	> 4 mM (inactive)

SMILES	Kd
O=C(Cn1cncn1)c1ccc(F)c(F)c1	> 4 mM (inactive)
CCOC(=O)c1csc(C)n1	> 4 mM (inactive)
NC1CSCC1O (centres undefined)	> 4 mM (inactive)
CCCc1nc2ccccc2c2nc(N)nn12	> 4 mM (inactive)
O=C1CSC(=Nc2ccccc2)N1	> 4 mM (inactive)
Oc1ccc(-c2n[nH]c(=S)n2Cc2ccco2)cc1	> 4 mM (inactive)
C(=Nn1cnnc1)c1ccccc1	> 4 mM (inactive)
CC(C)=CC(=O)Nc1ccc(S(N)(=O)=O)cc1	> 4 mM (inactive)
CCOC(=O)c1cnc2n(c1=O)CCS2	> 4 mM (inactive)
O=c1cc(CO)oc(CN2CCCCC2)c1O	> 4 mM (inactive)
O=C(O)CSCc1ccc(Cl)cc1	> 4 mM (inactive)
c1ccc(Cc2nnc(-c3ccccc3)o2)cc1	> 4 mM (inactive)
CCOC(=O)c1csc(C2COc3ccccc3O2)n1 (centres undefined)	> 4 mM (inactive)
O=C(c1ccccc1F)N1CCN(c2ccccc2)CC1	> 4 mM (inactive)
O=C(O)CCCc1nc2ccccc2s1	> 4 mM (inactive)
O=C(c1ccc(F)cc1)C1CCNCC1	> 4 mM (inactive)
Cc1ccc(C(=O)N2CCC(C(N)=O)CC2)c(Cl)c1	> 4 mM (inactive)
COc1ccccc1NC(=O)c1snnc1C	> 4 mM (inactive)
NC(Cc1c[nH]c2ccccc12)C(=O)O (centres undefined)	> 4 mM (inactive)
c1ccc2[nH]c(SCc3cscn3)nc2c1	> 4 mM (inactive)
O=CN1CCN(C(=O)c2ccc(F)cc2)CC1	> 4 mM (inactive)
Cc1occc1C(=O)NCc1ccncc1	> 4 mM (inactive)
O=C(/C=C/c1ccccc1)c1ccc(O)cc1	> 4 mM (inactive)
